The values below come from patent US9545105B2, “1-(heterocyclic carbonyl) piperidines” (BAYER INTELLECTUAL PROPERTY GMBH, priority 2010, dated 2017).

In series [1] the test system is Pyrenophora teres. Kind of series: In vivo preventive test on Pyrenophora teres (barley). Particulars: 500 ppm of active ingredient, evaluated 7-9 days after inoculation. Here is the method:
Solvent: 49 parts by weight of N,N-dimethylformamide Emulsifier: 1 part by weight of alkylaryl polyglycol ether To produce a suitable preparation of active compound, 1 part by weight of active compound is mixed with the stated amounts of solvent and emulsifier, and the concentrate is diluted with water to the desired concentration. To test for preventive activity, young plants are sprayed with the preparation of active compound at the stated rate of application. One day after this treatment, the plants are inoculated with an aqueous spore suspension of Pyrenophora teres. The plants remain for 48 hours in an incubation cabinet at 22° C. and a relative atmospheric humidity of 100%. Then the plants are placed in a greenhouse at a temperature of approximately 20° C. and a relative atmospheric humidity of approximately 80%. The test is evaluated 7-9 days after the inoculation. 0% means an efficacy which corresponds to that of the untreated control while an efficacy of 100% means that no disease is observed.

Series [2] can be described thus: log P by HPLC on reversed-phase column (C 18), EEC Directive 79/831 Annex V.A8. The class given is physicochemical. The note with it: HPLC on reversed-phase column (C 18); 40° C.; 0.1% aqueous formic acid and acetonitrile; linear gradient 10% to 90% acetonitrile. Here is the method: In table 1, the log P values were determined in accordance with EEC Directive 79/831 Annex V.A8 by HPLC (High Performance Liquid Chromatography) on a reversed-phase column (C 18), using the method described below: Temperature: 40° C.; Mobile phases: 0.1% aqueous formic acid and acetonitrile; linear gradient from 10% acetonitrile to 90% acetonitrile. Calibration was carried out using unbranched alkan-2-ones (comprising 3 to 16 carbon atoms) with known log P values (determination of the log P values by the retention times using linear interpolation between two successive alkanones). lambda-max-values were determined using UV-spectra from 200 nm to 400 nm and the peak values of the chromatographic signals.

Series [3] has as its system Alternaria solani. The experiment in a line: In vivo preventive test on Alternaria solani (tomato). The note with it: 500 ppm of active ingredient, evaluated 7 days after inoculation. Here is the method: Solvent: 49 parts by weight of N,N-dimethylformamide Emulsifier: 1 part by weight of Alkylarylpolyglycolether To produce a suitable preparation of active compound, 1 part by weight of active compound is mixed with the stated amounts of solvent and emulsifier, and the concentrate is diluted with water to the desired concentration. To test for preventive activity, young plants are sprayed with the preparation of active compound at the stated rate of application. One day after this treatment, the plants are inoculated with an aqueous spore suspension of Alternaria solani. The plants remain for one day in an incubation cabinet at approximately 22° C. and a relative atmospheric humidity of 100%. Then the plants are placed in an incubation cabinet at approximately 20° C. and a relative atmospheric humidity of 96%. The test is evaluated 7 days after the inoculation. 0% means an efficacy which corresponds to that of the untreated control while an efficacy of 100% means that no disease is observed.

The test system of series [4] is Sphaerotheca fuliginea. The experiment in a line: In vivo preventive test on Sphaerotheca fuliginea (cucumber). Particulars: 500 ppm of active ingredient, evaluated 7 days after inoculation. As for the experimental part: Solvent: 49 parts by weight of N,N-dimethylformamide Emulsifier: 1 part by weight of Alkylarylpolyglycolether To produce a suitable preparation of active compound, 1 part by weight of active compound is mixed with the stated amounts of solvent and emulsifier, and the concentrate is diluted with water to the desired concentration. To test for preventive activity, young plants are sprayed with the preparation of active compound at the stated rate of application. One day after this treatment, the plants are inoculated with an aqueous spore suspension of Sphaerotheca fuliginea. Then the plants are placed in a greenhouse at approximately 23° C. and a relative atmospheric humidity of approximately 70%. The test is evaluated 7 days after the inoculation. 0% means an efficacy which corresponds to that of the untreated control, while an efficacy of 100% means that no disease is observed.

A word on the logP: it is the decadic logarithm of the partition coefficient of the neutral form, usually between octanol and water. Low values mean a more hydrophilic compound, high ones a more lipophilic compound.

For the molecule `Cc1ccccc1C1CCCCN1C(=O)c1c(C(F)F)nn(C)c1F` (centres unmarked) [Example 6], the values for the Efficacy in series [1], in series [3] and in series [4] were 100%, 100% and 95%, respectively. In series [2], this molecule had a logP of 3.21.

On to `Cc1ccccc1C1CCCCN1C(=S)c1c(C(F)F)nn(C)c1F` (centres unmarked) [Example 7], for which the Efficacy in series [1] was determined as 100%; in series [3] it was 95%; in series [4], 100%. The molecule also yielded a log partition coefficient (logP) in series [2] of 3.81.

For `Cc1ccc(C2CCCCN2C(=O)c2c(C(F)F)nn(C)c2F)cc1C` (centres unmarked) [Example 9], the Efficacy in series [1] was determined as 100%; in series [3], 95%; in series [4] it was 93%. Further, the log partition coefficient (logP) in series [2] came out at 3.64.

`CCc1noc(C)c1C(=O)N1CCCCC1c1ccc(Br)s1` (centres unmarked) [Example 126] registered a logP in series [2] of 3.67. In addition, the Efficacy in series [4] is 95%.

As for `CC(c1ccccc1)C1CCCCN1C(=O)c1c(C(F)F)nn(C)c1Cl` (centres unmarked) [Example 137], the Efficacy in series [1] and in series [3] was 100% each time. For the same molecule, the logP in series [2] is 3.59.

For the molecule `Cc1nc(C(F)F)c(C(=O)N2CCCCC2Cc2ccccc2C)s1` (centres unmarked) [Example 142], the results for the Efficacy in series [1] and in series [3] were 95% and 94%, respectively. Also, in series [2], the lipophilicity (logP) is given as 3.50.

As to `Cc1cccc(CC2CCCCN2C(=O)c2c(C(F)F)nn(C)c2F)c1` (centres unmarked) [Example 144], the Efficacy in series [1] and in series [3] was 100% in each case. Besides, in series [2], the log partition coefficient (logP) stood at 3.44.

`Cc1cccc(CC2CCCCN2C(=O)c2sc(C)nc2C(F)F)c1` (centres unmarked) [Example 145]: the results for the Efficacy in series [1] and in series [3] were 80% and 75%, respectively. This molecule gave a logP in series [2] of 3.57.

On to `Cc1ccc(CC2CCCCN2C(=O)c2c(C(F)F)nn(C)c2F)cc1` (centres unmarked) [Example 147], for which the Efficacy in series [1] and in series [3] was 100% each time. The molecule also showed a log partition coefficient (logP) in series [2] of 3.46.

As for `Cc1ccc(CC2CCCCN2C(=O)c2sc(C)nc2C(F)F)cc1` (centres unmarked) [Example 148], the figures for the Efficacy in series [1] and in series [3] were 95% and 94%, respectively. Also, the logP in series [2] was 3.59.

`Cc1ccc(OCC2CCCCN2C(=O)c2c(C(F)F)nn(C)c2Cl)cc1` (centres unmarked) [Example 149]: the Efficacy in series [1] and in series [3] was 95% throughout. The log partition coefficient (logP) in series [2] was determined as 3.55.

On to `Cc1ccc(OCC2CCCCN2C(=O)c2c(C(F)F)nn(C)c2F)cc1` (centres unmarked) [Example 150], for which the Efficacy in series [1] and in series [3] was 100% throughout. Besides, the logP in series [2] came out at 3.35.

Take `Cn1nc(C(F)F)c(C(=O)N2CCCCC2Cc2cccc(F)c2)c1F` (centres unmarked) [Example 153]: the Efficacy in series [1] and in series [3] was 100% each time. The logP in series [2] worked out at 3.13.

On to `Cc1nc(C(F)F)c(C(=O)N2CCCCC2Cc2ccc(F)cc2)s1` (centres unmarked) [Example 154], for which the values for the Efficacy in series [1] and in series [3] were 100% and 89%, respectively. This molecule also returned a lipophilicity (logP) in series [2] of 3.21.

On to `COc1ccccc1CC1CCCCN1C(=O)c1c(C(F)F)nn(C)c1F` (centres unmarked) [Example 157], for which the Efficacy in series [1] and in series [3] was 100% throughout. In series [2], the lipophilicity (logP) was found to be 3.17.

As for `COc1ccccc1CC1CCCCN1C(=S)c1c(C(F)F)nn(C)c1F` (centres unmarked) [Example 160], the Efficacy in series [1] turned out to be 100%; in series [3] it was 90%. In addition, the logP in series [2] was 3.87.

`CC(c1ccccc1Cl)C1CCCCN1C(=O)c1c(C(F)F)nn(C)c1Cl` (centres unmarked) [Example 164]: the Efficacy is reported as 100% in series [1] and 89% in series [3]. In series [2], the log partition coefficient (logP) was 4.06.

Regarding `Cn1nc(C(F)F)c(C(=O)N2CCCCC2Cc2cccc(C(F)(F)F)c2)c1F` (centres unmarked) [Example 169], the Efficacy in series [1] and in series [3] was 100% each time. Also, the logP in series [2] was 3.59.

Take `Cn1nc(C(F)F)c(C(=O)N2CCCCC2COc2ccc3ccccc3c2)c1Cl` (centres unmarked) [Example 172]: the Efficacy in series [1] is 90%; in series [3] it was 80%. Further, the logP in series [2] came out at 3.87.

Regarding `Cn1nc(C(F)F)c(C(=O)N2CCCCC2COc2ccc3ccccc3c2)c1F` (centres unmarked) [Example 173], the Efficacy was determined as 95% in series [1] and 100% in series [3]. Further, in series [2], the logP came out at 3.68.

On to `Cn1nc(C(F)F)c(C(=O)N2CCCCC2CCc2ccccc2)c1F` (centres unmarked) [Example 177], for which the figures for the Efficacy in series [1] and in series [3] were 95% and 100%, respectively. This molecule also showed a logP in series [2] of 3.37.

Take `Cn1nc(C(F)F)c(C(=S)N2CCCCC2CCc2ccccc2)c1F` (centres unmarked) [Example 179]: the values for the Efficacy in series [1] and in series [3] were 100% and 95%, respectively. The logP in series [2] turned out to be 4.06.

Take `Cc1cc(C)cc(OCCC2CCCCN2C(=O)c2c(C(F)F)nn(C)c2Cl)c1` (centres unmarked) [Example 180]: the Efficacy in series [1] and in series [3] was 80% throughout. Further, in series [2], the log partition coefficient (logP) is reported as 4.11.

For `Cc1cc(C)cc(OCCC2CCCCN2C(=O)c2c(C(F)F)nn(C)c2F)c1` (centres unmarked) [Example 181], the Efficacy in series [1] and in series [3] was 100% in each case. The molecule further registered a logP in series [2] of 3.92.

Turning to `Cn1nc(C(F)F)c(C(=O)N2CCCCC2CCOc2ccc(F)cc2F)c1F` (centres unmarked) [Example 182], the Efficacy in series [1] and in series [3] was 100% throughout. In addition, in series [2], the lipophilicity (logP) was found to be 3.29.

`Cn1nc(C(F)F)c(C(=O)N2CCCCC2CCOc2ccc(F)cc2F)c1Cl` (centres unmarked) [Example 183]: the results for the Efficacy in series [1] and in series [3] were 100% and 95%, respectively. Also, the logP in series [2] turned out to be 3.46.

For `Cn1nc(C(F)F)c(C(=O)N2CCCCC2CCOc2ccc(Cl)cc2Cl)c1Cl` (centres unmarked) [Example 184], the Efficacy in series [1] was found to be 100%; in series [3], 95%. The same molecule had a logP in series [2] of 4.26.

Consider `Cn1nc(C(F)F)c(C(=O)N2CCCCC2CCOc2ccc(Cl)cc2Cl)c1F` (centres unmarked) [Example 185], for which the results for the Efficacy in series [1] and in series [3] were 95% and 100%, respectively. The same molecule had a log partition coefficient (logP) in series [2] of 4.06.

On to `Cn1nc(C(F)F)c(C(=O)N2CCCCC2CCOc2ccccc2-c2ccccc2)c1Cl` (centres unmarked) [Example 186], for which the Efficacy was 95% in series [1] and 80% in series [3]. Moreover, the logP in series [2] came to 4.39.

As to `Cn1nc(C(F)F)c(C(=O)N2CCCCC2CCOc2ccccc2-c2ccccc2)c1F` (centres unmarked) [Example 187], the Efficacy in series [1] and in series [3] was 95% each time. The molecule also came in with a logP in series [2] of 4.21.

As to `Cn1nc(C(F)F)c(C(=O)N2CCCCC2CCOc2ccc(-c3ccccc3)cc2)c1Cl` (centres unmarked) [Example 188], the values for the Efficacy in series [1] and in series [3] were 95% and 70%, respectively. The lipophilicity (logP) in series [2] came to 4.49.

On to `Cn1nc(C(F)F)c(C(=O)N2CCCCC2CCOc2ccc(-c3ccccc3)cc2)c1F` (centres unmarked) [Example 189], for which the results for the Efficacy in series [1] and in series [3] were 95% and 100%, respectively. For the same molecule, in series [2], the lipophilicity (logP) worked out at 4.31.

`Cn1nc(C(F)F)c(C(=O)N2CCCCC2CCOc2ccc3ccccc3c2)c1Cl` (centres unmarked) [Example 190]: the Efficacy in series [1] came to 95%; in series [3], 90%. This molecule registered a logP in series [2] of 4.09.

Regarding `Cn1nc(C(F)F)c(C(=O)N2CCCCC2CCOc2ccc3ccccc3c2)c1F` (centres unmarked) [Example 191], the Efficacy in series [1] and in series [3] was 100% each time. In series [2], this molecule registered a lipophilicity (logP) of 3.92.

As for `Cn1nc(C(F)F)c(C(=O)N2CCCCC2CCc2cccs2)c1F` (centres unmarked) [Example 194], the Efficacy in series [1] and in series [3] was 100% each time. Also, in series [2], the logP came out at 3.25.

For `Cn1nc(C(F)F)c(C(=O)N2CCCCC2CCOc2ccc(C(F)(F)F)cn2)c1Cl` (centres unmarked) [Example 195], the Efficacy in series [1] came to 95%; in series [3], 100%. In series [2], this molecule registered a logP of 3.74.
